Reference: patent EP3539964A1, “BASE ACETAMIDE GLYCERIN ETHER MOLECULE, CHEMICAL SYNTHESIS METHOD THEREFOR, AND APPLICATIONS THEREOF IN FIELD OF GENE THERAPY” (Peking University, priority 2016, dated 2018)

Assays:
MCF-7 cells = assay: Antisense nucleic acid (Cenersen) uptake; assay type: cell-based; settings: liposomes, compared with blank group and DOCA/DOTA liposome groups (Fig. 8)
Method: The cells used in the transfection experiments were Hela cells. • (1) Plating: 300,000 cells were added to the six-well plate, and the volume per well was 1.8 mL; • (2) After 18-24 h, the samples were diluted in an appropriate amount of opti-MEM, blowing and suction with a pipette to mix well, 20 µL of the mixed […] The DNA-free and DNA-only wells were used as two negative controls, and the transfection reagent Lipofectamine 2000-DNA complex (the method of addition of transfection reagent and DNA group according to the protocol) was added as a positive control; • (3) Washing three times with 500 µL PBS; • (4) After 4 hours, the liquids in the culture wells were aspirated, after adding 250 µL of 5% trypsin each, they were placed in 1.5 mL EP tubes, the cells were fixed with 4% paraformaldehyde for 15 min; • (5) Centrifuging, discarding the supernatant, adding 400 µL PBS in each tube; • (6) Fluorescence intensity was measured by using flow cytometry;
The procedure was the same as the transfection experiments of DNCA- and DNTA-packed PolyG/PolyA (using DOCA and DOTA as controls), the cell line was selected from MCF-7 cell line.

[1] = Cytotoxicity using CCK-8 kit; assay type: cell-based; settings: for viability at 72 h, 60 µM: 72 hours after addition, concentration of 60 µM, read-out: cell survival rate; for cytotoxicity: CCK-8 kit (Fig. 6)
Method: When base acetamide glycerin ether molecules should is to be used as novel biomaterials in the field of gene therapy, they must have good biocompatibility. Two base acetamide glycerin ether compounds (DOCA and DOTA) were studied for cytotoxicity using CCK-8 kit. […] After 72 hours of addition of the base acetamide glycerin ether compound at a concentration of 60 µM, the cell survival rate was close to 100%, indicating good biocompatibility (Fig. 6).

Hela cells = assay: Transfection of FAM-labeled polyA/G, fluorescence intensity by flow cytometry; assay type: cell-based; settings: liposomes mixed with FAM-polyA at base ratio 5/1, 100 nM FAM-polyA, 4 hours, Hela cells (Fig. 7)
Source text: Taking DNTA and DNCA as examples, FAM-labeled polyA/G was used as a template to study the nucleic acid transfection abilities of thymine base acetamide glycerin ethers. The specific coating and transfection process is as follows: DNTA or DNCA liposomes were formulated as mixed solutions with FAM-polyA or FAM-polyG at a base ratios of 5/1. […] The DNA-free and DNA-only wells were used as two negative controls, and the transfection reagent Lipofectamine 2000-DNA complex (the method of addition of transfection reagent and DNA group according to the protocol) was added as a positive control; • (3) Washing three times with 500 µL PBS; • (4) After 4 hours, the liquids in the culture wells were aspirated, after adding 250 µL of 5% trypsin each, they were placed in 1.5 mL EP tubes, the cells were fixed with 4% paraformaldehyde for 15 min; • (5) Centrifuging, discarding the supernatant, adding 400 µL PBS in each tube; • (6) Fluorescence intensity was measured by using flow cytometry;

[2] = Particle size and morphology of liposomes by electron microscopy; assay type: physicochemical; settings: liposome/nanoparticles self-assembled in water, electron microscopy (Fig. 5)
Method: The base-acetamide glycerin ether molecule has an amphiphilic structure and can be prepared into a supramolecular structure such as a liposome. Taking DNTA as an example, the preparation method of liposome is as follows: DNTA (1.18 mg, 1.56 µmol) is dissolved in methanol (1 mL), vortexed to fully dissolve, after centrifugation, DNTA methanol solution (12.8 µL) is measured out and adding to a 200 µL centrifuge tube, added with PBS (100 µL), vortexed (10 s) to mix well. The solution was placed in a PCR program for annealing. Procedure: Heating at 95°C for 10 minutes, cool down 5°C every 5 minutes until 15°C, then store at 4°C. After annealing was completed, the centrifuge tube was incubated at 40°C for 30 min for the complete evaporation of methanol to obtain the liposome solution.
Under transmission electron microscope (TEM), it can be seen that the neutral base lipid carrier molecules DNCA and DNTA can form stable and uniform nanoparticles in aqueous solution. The size of the DNTA molecules assembled in water is around 150 nm. The size of the liposome formed by self-assembly of DNCA carrier molecules in water is around 180 nm (Fig. 5).

SMILES | uptake of antisense nucleic acid (MCF-7 cells) | viability at 72 h, 60 µM [1] [%] | cytotoxicity [1] | transfection of FAM-polyA into cells (Hela cells) | size [2]
CCCCCCCC/C=C\CCCCCCCCOCC(CNC(=O)Cn1cc(C)c(=O)[nH]c1=O)OCCCCCCCC/C=C\CCCCCCCC (stereo not shown) [DNTA, 1,2,-bis(oleyl)-glycero-3-amine-(thymidine-1-yl)-acetyl ester] | could significantly increase the uptake ability of MCF-7 cells | ~100 | no obvious cytotoxicity | can successfully transport FAM-polyA into cells | around 150 nm
CCCCCCCC/C=C\CCCCCCCCOCC(CNC(=O)Cn1ccc(N)nc1=O)OCCCCCCCC/C=C\CCCCCCCC (stereo not shown) [DNCA, 1,2,-bis(oleyl)-glycero-3-amine-(cytosin-1-yl)-acetyl ester] | could significantly increase the uptake ability of MCF-7 cells | ~100 | no obvious cytotoxicity | can successfully transport FAM-polyA into cells | around 180 nm
